From patent US20220144815A1, “1,3,4-OXADIAZOLES AND THEIR DERIVATIVES AS NEW ANTIFUNGAL AGENTS” (Bayer Aktiengesellschaft, priority 2018, published 2022)

Assay: Log P by HPLC on reversed phase columns, method [a] (EEC directive 79/831 Annex V.A8)
Format: physicochemical
Conditions: log P determined according to method [a] (HPLC on reversed phase columns)
Protocol: Measurement of Log P values as provided herein was performed according to EEC directive 79/831 Annex V.A8 by HPLC (High Performance Liquid Chromatography) on reversed phase columns with the following methods: • ^[a] Log P value is determined by measurement of LC-UV, in an acidic range, with 0.1% formic acid in water and acetonitrile as eluent (linear gradient from 10% acetonitrile to 95% acetonitrile). • ^[b] Log P value is determined by measurement of LC-UV, in a neutral range, with 0.001 molar ammonium acetate solution in water and acetonitrile as eluent (linear gradient from 10% acetonitrile to 95% acetonitrile). • ^[c] Log P value is determined by measurement of LC-UV, in an acidic range, with 0.1% phosphoric acid and acetonitrile as eluent (linear gradient from 10% acetonitrile to 95% acetonitrile). If more than one Log P value is available within the same method, all the values are given and separated by “+”. Calibration was done with straight-chain alkan2-ones (with 3 to 16 carbon atoms) with known Log P values (measurement of Log P values using retention times with linear interpolation between successive alkanones). Lambda-max-values were determined using UV-spectra from 200 nm to 400 nm and the peak values of the chromatographic signals In table 1, the log P values were determined according to method [^a]. In table 2, the log P values were determined according to method [^a].

logP	Compound
3.29	O=C(Nc1ccc(F)cc1F)c1ccc(-c2nnc(C(F)(F)F)s2)cc1 [Example I-029]
2.51	CC(Nc1ncc(-c2nnc(C(F)F)o2)cn1)C1CC1 (stereo not shown) [Example I-073]
2.01	O=C(Nc1ccc(-c2nnc(C(F)F)o2)cc1)C(F)F [Example I-012]
0.60	FC(F)c1nnc(-c2ccc(Cn3ccnc3)cc2)o1 [Example I-010]
1.59	C#CCNc1ncc(-c2nnc(C(F)F)o2)cn1 [Example I-063]
1.58	COCCNC(=O)c1ccc(-c2nnc(C(F)F)o2)cc1 [Example I-016]
1.48	COCCNc1ncc(-c2nnc(C(F)F)o2)cn1 [Example I-068]
0.83	O=C(O)c1ccc(-c2nnc(C(F)F)o2)cn1 [Example I-032]
1.90	CC1(Nc2ncc(-c3nnc(C(F)F)o3)cn2)CC1 [Example I-066]
1.87	CN(C)c1ncc(-c2nnc(C(F)F)o2)cn1 [Example I-062]
3.59	CCc1noc(-c2ccc(-c3nnc(C(F)(F)F)o3)cc2)n1 [Example I-018]
2.97	COC(=O)c1ccc(-c2nnc(C(F)(F)F)o2)cc1 [Example I-006]
2.49	FC(F)c1nnc(-c2cnc(Cc3ccccc3)nc2)o1 [Example I-075]
3.12	O=C(Nc1ccc(F)cc1F)c1ccc(-c2nnc(C(F)(F)F)o2)cc1 [Example I-028]
2.51	Fc1ccc(Oc2ncc(-c3nnc(C(F)F)o3)cn2)cc1 [Example I-098]
2.72	N#Cc1ccc(-c2ncc(-c3nnc(C(F)F)o3)cn2)cc1 [Example I-085]
2.39	FC(F)c1nnc(-c2ccc(C(F)(F)F)nc2)o1 [Example I-037]
2.04	COCCNC(=O)c1ccc(-c2nnc(C(F)(F)F)o2)cc1 [Example I-020]
4.03	FC(F)c1nnc(-c2ccc(COc3ccc(Cl)cc3)cc2)o1 [Example I-024]
2.05	CN(C(=O)c1ccc(-c2nnc(C(F)F)o2)cn1)c1ccccc1 [Example I-049]
1.32	CC(=O)Nc1ccc(-c2nnc(C(F)F)o2)cn1 [Example I-034]
3.19	Fc1ccccc1Nc1ccc(-c2nnc(C(F)F)o2)cc1 [Example I-017]

Same assay, conditions: reversed phase HPLC column; Method A: LC-UV, acidic range, 0.1% formic acid in water and acetonitrile; read-out: Log P

chromatographic logP	Compound
1.63	NNC(=O)c1cnc(NC2(c3ccccc3)CCC2)nc1 [2-[(1-phenylcyclobutyl)amino]pyrimidine-5-carbohydrazide]
1.93	CCc1noc(-c2ccc(C(=O)NNC(=O)C(F)(F)F)cc2)n1 [IIa.14, 4-(3-ethyl-1,2,4-oxadiazol-5-yl)-N′-(trifluoroacetyl)benzohydrazide]
1.23	CCc1noc(-c2ccc(C(=O)NNC(=O)OC(C)(C)C)cc2)n1 [tert-butyl 2-[4-(3-ethyl-1,2,4-oxadiazol-5-yl)benzoyl]hydrazinecarboxylate]

Same assay, conditions: reversed phase HPLC column; log P determined according to method [a] (HPLC on reversed phase columns); read-out: logP

chromatographic logP	Compound
2.95	FC(F)c1nnc(-c2cnc(NCc3ccccc3Cl)nc2)o1 [I.128, N-(2-chlorobenzyl)-5-[5-(difluoromethyl)-1,3,4-oxadiazol-2-yl]pyrimidin-2-amine]
3.25	Fc1cccc(F)c1C1(Oc2ncc(-c3nnc(C(F)F)o3)cn2)CC1 [I.167, 5-[5-(difluoromethyl)-1,3,4-oxadiazol-2-yl]-2-{[1-(2,6-difluorophenyl)cyclopropyl]oxy}pyrimidine]
3.1	CC(Nc1ncc(-c2nnc(C(F)F)o2)cn1)c1c(F)cccc1F (racemic) [I.151, 5-[5-(difluoromethyl)-1,3,4-oxadiazol-2-yl]-N-[(1RS)-1-(2,6-difluorophenyl)ethyl]pyrimidin-2-amine]
2.92	FC(F)c1nnc(-c2cnc(Nc3ccccc3Cl)nc2)o1 [I.114, N-(2-chlorophenyl)-5-[5-(difluoromethyl)-1,3,4-oxadiazol-2-yl]pyrimidin-2-amine]
2.89	CC(Nc1ncc(-c2nnc(C(F)F)o2)cn1)c1ccccc1F (racemic) [I.124, 5-[5-(difluoromethyl)-1,3,4-oxadiazol-2-yl]-N-[(1RS)-1-(2-fluorophenyl)ethyl]pyrimidin-2-amine]
2.59	FC(F)c1nnc(-c2cnc(-c3ccnc(Cl)c3)nc2)o1 [I.102, 2-(2-chloropyridin-4-yl)-5-[5-(difluoromethyl)-1,3,4-oxadiazol-2-yl]pyrimidine]
1.94	CCOC(=O)C1(Nc2ncc(-c3nnc(C(F)F)o3)cn2)CC1 [I.117, ethyl 1-({5-[5-(difluoromethyl)-1,3,4-oxadiazol-2-yl]pyrimidin-2-yl}amino)cyclopropanecarboxylate]
1.66	FC(F)c1nnc(-c2cnc(OC3(c4ccccn4)COC3)nc2)o1 [I.143, 5-[5-(difluoromethyl)-1,3,4-oxadiazol-2-yl]-2-{[3-(pyridin-2-yl)oxetan-3-yl]oxy}pyrimidine]
2.85	C[C@H](Nc1ncc(-c2nnc(C(F)F)o2)cn1)c1ccc(F)cc1 [I.125b, 5-[5-(difluoromethyl)-1,3,4-oxadiazol-2-yl]-N-[(1S)-1-(4-fluorophenyl)ethyl]pyrimidin-2-amine]
2.67	Fc1cccc(F)c1CNc1ncc(-c2nnc(C(F)F)o2)cn1 [I.129, N-(2,6-difluorobenzyl)-5-[5-(difluoromethyl)-1,3,4-oxadiazol-2-yl]pyrimidin-2-amine]
3.57	FC(F)c1nnc(-c2cnc(NC3(C4CCCCC4)CC3)nc2)o1 [I.126, N-(1-cyclohexylcyclopropyl)-5-[5-(difluoromethyl)-1,3,4-oxadiazol-2-yl]pyrimidin-2-amine]

Same assay, conditions: reversed phase HPLC column; method [a], HPLC on reversed phase columns; read-out: logP

chromatographic logP	Compound
3.98	CN(c1ncc(-c2nnc(C(F)F)o2)cn1)C1(c2ccccc2F)CC1 [I.221, 5-[5-(difluoromethyl)-1,3,4-oxadiazol-2-yl]-N-[1-(2-fluorophenyl)cyclopropyl]-N-methylpyrimidin-2-amine]
2.39	COc1ccc(C2(Nc3ncc(-c4nnc(C(F)F)o4)cn3)CC2)cc1OC [I.243, 5-[5-(difluoromethyl)-1,3,4-oxadiazol-2-yl]-N-[1-(3,4-dimethoxyphenyl)cyclopropyl]pyrimidin-2-amine]
2.62	FC(F)c1nnc(-c2cnc(NC3(c4ccccc4)CC3)nc2)o1 [I.195, 5-[5-(difluoromethyl)-1,3,4-oxadiazol-2-yl]-N-(1-phenylcyclopropyl)pyrimidin-2-amine]
4.16	FC(F)c1nnc(-c2cnc(NC3(c4ccc(C(F)(F)F)cc4)CCCC3)nc2)o1 [I.266, 5-[5-(difluoromethyl)-1,3,4-oxadiazol-2-yl]-N-{1-[4-(trifluoromethyl)phenyl]cyclopentyl}pyrimidin-2-amine]
3.13	CC(CNc1ncc(-c2nnc(C(F)F)o2)cn1)c1ccc(F)cc1 (racemic) [I.211, 5-[5-(difluoromethyl)-1,3,4-oxadiazol-2-yl]-N-[(2RS)-2-(4-fluorophenyl)propyl]pyrimidin-2-amine]
3.81	FC(F)c1nnc(-c2cnc(NC3(c4ccccc4Cl)CCC3)nc2)o1 [I.174, N-[1-(2-chlorophenyl)cyclobutyl]-5-[5-(difluoromethyl)-1,3,4-oxadiazol-2-yl]pyrimidin-2-amine]
3.37	CC(Nc1ncc(-c2nnc(C(F)F)o2)cn1)c1cccc(C(F)(F)F)c1 (racemic) [I.239, 5-[5-(difluoromethyl)-1,3,4-oxadiazol-2-yl]-N-{(1RS)-1-[3-(trifluoromethyl)phenyl]ethyl}pyrimidin-2-amine]
3.44	CC(C)(CNc1ncc(-c2nnc(C(F)F)o2)cn1)c1ccc(F)cc1 [I.224, 5-[5-(difluoromethyl)-1,3,4-oxadiazol-2-yl]-N-[2-(4-fluorophenyl)-2-methylpropyl]pyrimidin-2-amine]
3.58	CCC(Nc1ncc(-c2nnc(C(F)F)o2)cn1)c1ccc(Cl)cc1 (racemic) [I.230, N-[(1RS)-1-(4-chlorophenyl)propyl]-5-[5-(difluoromethyl)-1,3,4-oxadiazol-2-yl]pyrimidin-2-amine]
3.37	FC(F)c1nnc(-c2cnc(NC3(c4cccc(OC(F)(F)F)c4)CC3)nc2)o1 [I.262, 5-[5-(difluoromethyl)-1,3,4-oxadiazol-2-yl]-N-{1-[3-(trifluoromethoxy)phenyl]cyclopropyl}pyrimidin-2-amine]
4.35	FC(F)c1nnc(-c2cnc(NC3(c4cccc(Cl)c4)CCCCC3)nc2)o1 [I.258, N-[1-(3-chlorophenyl)cyclohexyl]-5-[5-(difluoromethyl)-1,3,4-oxadiazol-2-yl]pyrimidin-2-amine]
3.28	Cc1ccccc1C(C)(C)Nc1ncc(-c2nnc(C(F)F)o2)cn1 [I.205, 5-[5-(difluoromethyl)-1,3,4-oxadiazol-2-yl]-N-[2-(2-methylphenyl)propan-2-yl]pyrimidin-2-amine]
2.99	FC(F)c1nnc(-c2cnc(NC3(Cc4ccccc4)CC3)nc2)o1 [I.201, N-(1-benzylcyclopropyl)-5-[5-(difluoromethyl)-1,3,4-oxadiazol-2-yl]pyrimidin-2-amine]
